Measurements reported in patent publication US20150328193A1, “TREATMENT OF MTOR HYPERACTIVE RELATED DISEASES AND DISORDERS” (THE BRIGHAM AND WOMEN'S HOSPITAL, INC., priority 2012, published 2015).
Counter-ions that a name gives are not always drawn.

What was measured:
[1] = system: 621-101 cells (TSC2-null, derived from a LAM patient); assay: High-throughput screen of known bioactives in 621-101 cells, ATP levels ([…] GLO) as cell viability, with or without rapamycin pretreatment; type: cell-based, human; settings: for Inducing cell death in TSC2-null LAM cells as single agent: used individually in the absence of rapamycin; for Synergy with rapamycin to bring about apoptosis in TSC2-null LAM cells: combination with rapamycin; for Normalized ATP levels drug alone (A) / Normalized ATP levels rapa + drug (B): 621-101 cells, 48-72 h; for Normalized ATP levels drug alone (A): DMSO pretreatment; for Normalized ATP levels rapa + drug (B): rapamycin (20 nM) pretreatment two hours plus drug; for ATP Fold Change (B):(A): ratio of rapa + drug to drug alone
Procedure: Rapamycin was used at 20 nM and the screen compounds at 20 uM.
Cells are then pretreated with either Rapamycin (20 nM) or DMSO control in duplicate for two hours. Compound libraries are then added at the ICCB and allowed to incubate for 48-72 h. […] Treatment with staurosporine (1-2 uM) represents a positive control for cell death.
The inventors screened the Known Bioactives Collection at the ICCB which consists of approximately 7,000 compounds.

[2] = target: JAK2 kinase (Homo sapiens, UniProt O60674); settings: in vitro; cited from earlier work
Chain of JAK2 kinase (O60674 whole entry): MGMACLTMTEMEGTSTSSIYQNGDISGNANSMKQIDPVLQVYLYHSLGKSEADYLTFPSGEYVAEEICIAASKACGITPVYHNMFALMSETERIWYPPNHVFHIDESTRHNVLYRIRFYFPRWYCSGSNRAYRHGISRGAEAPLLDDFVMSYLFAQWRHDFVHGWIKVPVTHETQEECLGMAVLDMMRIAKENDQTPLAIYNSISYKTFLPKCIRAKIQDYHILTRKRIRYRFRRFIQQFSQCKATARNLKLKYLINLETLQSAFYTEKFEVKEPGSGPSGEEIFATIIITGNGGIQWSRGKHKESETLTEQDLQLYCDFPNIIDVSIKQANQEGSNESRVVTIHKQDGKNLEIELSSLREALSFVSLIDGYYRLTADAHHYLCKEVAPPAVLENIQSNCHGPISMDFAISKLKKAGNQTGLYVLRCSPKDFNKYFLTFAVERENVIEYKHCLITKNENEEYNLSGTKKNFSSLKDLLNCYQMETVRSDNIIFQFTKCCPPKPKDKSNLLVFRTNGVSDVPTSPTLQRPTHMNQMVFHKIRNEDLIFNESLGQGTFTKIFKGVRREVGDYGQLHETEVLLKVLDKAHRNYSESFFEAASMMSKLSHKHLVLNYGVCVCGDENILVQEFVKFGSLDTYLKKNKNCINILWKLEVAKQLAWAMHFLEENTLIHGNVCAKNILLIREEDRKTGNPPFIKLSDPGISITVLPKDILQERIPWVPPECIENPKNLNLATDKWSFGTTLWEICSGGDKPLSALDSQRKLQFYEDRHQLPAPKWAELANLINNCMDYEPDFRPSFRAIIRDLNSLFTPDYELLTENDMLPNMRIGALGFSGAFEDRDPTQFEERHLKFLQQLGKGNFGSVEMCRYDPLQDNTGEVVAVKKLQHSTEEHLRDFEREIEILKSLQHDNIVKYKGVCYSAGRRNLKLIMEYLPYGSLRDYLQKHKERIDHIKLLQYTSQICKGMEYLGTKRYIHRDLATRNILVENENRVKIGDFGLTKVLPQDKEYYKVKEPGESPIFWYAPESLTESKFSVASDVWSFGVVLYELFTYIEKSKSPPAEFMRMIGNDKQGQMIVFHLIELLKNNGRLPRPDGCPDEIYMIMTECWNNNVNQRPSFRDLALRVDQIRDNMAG

[3] = target: TrkA (Homo sapiens, UniProt P04629); settings: cited from earlier work
Chain of TrkA (P04629 33-796, species assumed): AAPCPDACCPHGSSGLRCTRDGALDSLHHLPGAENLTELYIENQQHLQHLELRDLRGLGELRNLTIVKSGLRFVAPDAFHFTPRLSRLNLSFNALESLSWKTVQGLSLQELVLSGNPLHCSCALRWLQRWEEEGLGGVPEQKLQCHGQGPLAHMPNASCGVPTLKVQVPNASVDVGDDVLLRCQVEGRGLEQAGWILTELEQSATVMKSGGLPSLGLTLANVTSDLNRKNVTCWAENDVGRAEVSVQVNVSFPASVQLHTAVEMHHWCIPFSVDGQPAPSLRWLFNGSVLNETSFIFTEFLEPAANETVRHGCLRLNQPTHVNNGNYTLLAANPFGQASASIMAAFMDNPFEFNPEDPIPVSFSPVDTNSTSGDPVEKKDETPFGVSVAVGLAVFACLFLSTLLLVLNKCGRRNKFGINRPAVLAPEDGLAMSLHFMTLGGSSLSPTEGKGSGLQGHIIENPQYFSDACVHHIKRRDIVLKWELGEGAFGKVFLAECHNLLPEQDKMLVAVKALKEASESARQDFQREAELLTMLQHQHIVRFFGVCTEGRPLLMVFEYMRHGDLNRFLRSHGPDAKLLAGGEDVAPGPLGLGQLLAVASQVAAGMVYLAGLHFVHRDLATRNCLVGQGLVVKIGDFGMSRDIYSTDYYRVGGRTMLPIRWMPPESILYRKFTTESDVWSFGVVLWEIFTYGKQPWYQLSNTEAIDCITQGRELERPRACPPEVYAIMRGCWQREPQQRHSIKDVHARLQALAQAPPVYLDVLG

[4] = target: T1, Aurora-A (Homo sapiens, UniProt O14965); settings: cited from earlier work
T1 sequence (O14965 1-403): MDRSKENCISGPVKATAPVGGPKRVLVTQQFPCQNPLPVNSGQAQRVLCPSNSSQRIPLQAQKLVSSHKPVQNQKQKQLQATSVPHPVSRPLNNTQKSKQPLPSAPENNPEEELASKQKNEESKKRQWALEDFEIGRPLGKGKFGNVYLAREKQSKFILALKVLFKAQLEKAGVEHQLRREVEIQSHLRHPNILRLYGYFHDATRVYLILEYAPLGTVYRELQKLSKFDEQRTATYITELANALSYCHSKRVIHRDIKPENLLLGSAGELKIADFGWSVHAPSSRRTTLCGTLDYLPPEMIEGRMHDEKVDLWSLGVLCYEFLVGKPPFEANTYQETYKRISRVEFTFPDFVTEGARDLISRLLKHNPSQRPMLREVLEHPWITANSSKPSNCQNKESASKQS

[5] = target: FAK (Homo sapiens, UniProt Q05397); settings: cited from earlier work
Chain of FAK (Q05397 whole entry, species assumed): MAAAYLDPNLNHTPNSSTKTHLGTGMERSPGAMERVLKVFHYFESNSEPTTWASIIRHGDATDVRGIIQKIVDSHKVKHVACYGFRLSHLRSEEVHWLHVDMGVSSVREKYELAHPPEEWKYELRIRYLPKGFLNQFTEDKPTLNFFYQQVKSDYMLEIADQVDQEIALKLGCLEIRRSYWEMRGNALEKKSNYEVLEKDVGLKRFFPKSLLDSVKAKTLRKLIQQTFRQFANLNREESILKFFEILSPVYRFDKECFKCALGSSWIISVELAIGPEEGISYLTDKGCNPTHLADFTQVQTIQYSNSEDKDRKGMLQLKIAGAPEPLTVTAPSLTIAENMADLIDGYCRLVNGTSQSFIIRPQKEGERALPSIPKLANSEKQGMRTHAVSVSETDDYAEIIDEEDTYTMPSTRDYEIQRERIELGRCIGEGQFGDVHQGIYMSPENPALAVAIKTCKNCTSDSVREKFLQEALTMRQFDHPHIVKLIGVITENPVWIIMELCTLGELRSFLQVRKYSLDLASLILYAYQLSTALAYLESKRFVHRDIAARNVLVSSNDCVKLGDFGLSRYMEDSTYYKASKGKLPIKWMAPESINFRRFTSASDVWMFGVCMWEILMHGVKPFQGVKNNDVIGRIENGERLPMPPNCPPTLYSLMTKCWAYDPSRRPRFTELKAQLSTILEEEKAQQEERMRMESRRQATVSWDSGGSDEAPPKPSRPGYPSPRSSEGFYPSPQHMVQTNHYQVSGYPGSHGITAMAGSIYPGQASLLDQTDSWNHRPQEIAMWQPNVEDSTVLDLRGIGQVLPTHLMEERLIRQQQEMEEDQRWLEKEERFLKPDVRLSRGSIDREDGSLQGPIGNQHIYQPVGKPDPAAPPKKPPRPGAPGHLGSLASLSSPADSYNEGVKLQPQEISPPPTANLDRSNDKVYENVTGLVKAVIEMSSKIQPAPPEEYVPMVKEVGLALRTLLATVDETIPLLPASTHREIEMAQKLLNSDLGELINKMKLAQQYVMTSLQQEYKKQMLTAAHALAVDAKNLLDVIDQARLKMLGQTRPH

[6] = system: 621-101 cells; assay: Follow-up imaging of cell death/proliferation in 621-101 cells; type: cell-based, human
Procedure: 621-101 cells were pretreated for two hours with either DMSO (top two panels) or rapamycin (20 nM) bottom two panels) followed by the addition of fresh DMSO (top left), fresh rapamycin (bottom left), chelerythrine chloride (1 uM, top right), or rapamycin and chelerythrine chloride (bottom right). […] 4× magnification.

[7] = system: Tsc2-null mouse embryonic fibroblasts (MEFs); assay: Chelerythrine chloride treatment of Tsc2-null mouse embryonic fibroblasts; type: cell-based; settings: 10 uM, 30 hours
[8] = system: wild-type mouse embryonic fibroblasts (MEFs); assay: Chelerythrine chloride treatment of wild-type mouse embryonic fibroblasts; type: cell-based; settings: 10 uM, 30 hours
[9] = target: protein kinase C (PKC); settings: cited from earlier work
[10] = system: ELT3-V3 (TSC2-deficient) cells; assay: Paroxetine treatment of ELT3-V3 (TSC2-deficient) versus ELT3-T3 (re-expressing TSC2) cells; type: cell-based, Eker rat; parameters: dose or concentration left out as unconfirmed; settings: 24 hrs
Procedure: […] TSC2-deficient uterine leiomyoma cells derived from the Eker rat model of TSC, ELT3-V3 (TSC2-deficient) and ELT3-T3 (re-expressing TSC2) were treated with […] of DMSO or Paxil for 24 hrs.

[11] = Rapamycin 20 nM, screen compounds 20 uM

CNCCC(Oc1ccc(C(F)(F)F)cc1)c1ccccc1 (racemic) [fluoxetine, (RS)-N-methyl-3-phenyl-3-[4-(trifluoromethyl)phenoxy]propan-1-amine]
Inducing cell death in TSC2-null LAM cells as single agent [1]: surprisingly effective at inducing cell death

NC[C@@H]1O[C@H](C23CC4CC(CC(C4)C2)C3)Cc2c1ccc(O)c2O [A-77636]
Inducing cell death in TSC2-null LAM cells as single agent [1]: surprisingly effective at inducing cell death

Cc1cc(Nc2nc(N[C@@H](C)c3ccc(F)cc3)c(C#N)cc2F)n[nH]1 [AZ-960]
Synergize with rapamycin to cause cell death / decrease ATP levels (confirmed hits) [1, 11]: confirmed as hits
Synergy with rapamycin to bring about apoptosis in TSC2-null LAM cells [1]: worked synergistically with rapamycin
Ki [2]: 0.45 nM
IC50 [3]: ~100 nM
IC50 [4]: ~100 nM
IC50 [5]: ~100 nM

CCC1(c2ccc(N)cc2)CCC(=O)NC1=O (centres unmarked) [Aminoglutethimide]
Normalized ATP levels drug alone (A) [1]: 0.474
Normalized ATP levels rapa + drug (B) [1]: 1.264
ATP Fold Change (B):(A) [1]: 2.7 (Anticonvulsant)
Inducing cell death in TSC2-null LAM cells as single agent [1]: surprisingly effective at inducing cell death

O=C(Nc1cccc(Nc2ncc(Br)c(NCCc3cnc[nH]3)n2)c1)N1CCCC1 [BX912, N-(3-(4-(2-(1H-imidazol-5-yl)ethylamino)-5-bromopyrimidin-2-ylamino)phenyl)pyrrolidine-1-carboxamide]
Synergy with rapamycin to bring about apoptosis in TSC2-null LAM cells [1]: worked synergistically with rapamycin

CC(C)NCC(O)COc1ccc(CCOCC2CC2)cc1 (centres unmarked) [Betaxolol HCl]
Normalized ATP levels drug alone (A) [1]: 0.487
Normalized ATP levels rapa + drug (B) [1]: 1.27
ATP Fold Change (B):(A) [1]: 2.6 (β blocker)
Inducing cell death in TSC2-null LAM cells as single agent [1]: surprisingly effective at inducing cell death

OCCN1CCN(CC/C=C2/c3ccccc3Sc3ccc(C(F)(F)F)cc32)CC1 [Flupenthixol 2HCl]
Normalized ATP levels drug alone (A) [1]: 0.273
Normalized ATP levels rapa + drug (B) [1]: 0.776
ATP Fold Change (B):(A) [1]: 2.8 (Anti-psychotic)
Inducing cell death in TSC2-null LAM cells as single agent [1]: surprisingly effective at inducing cell death

OCCN1CCN(CCCN2c3ccccc3Sc3ccc(C(F)(F)F)cc32)CC1 [Fluphenazine 2HCl]
Normalized ATP levels drug alone (A) [1]: 0.069
Normalized ATP levels rapa + drug (B) [1]: 0.191
ATP Fold Change (B):(A) [1]: 2.8 (Anti-psychotic)
Inducing cell death in TSC2-null LAM cells as single agent [1]: surprisingly effective at inducing cell death

CCC1(c2ccccc2)NC(=O)N(C)C1=O (centres unmarked) [Mephenytoin]
Normalized ATP levels drug alone (A) [1]: 0.425
Normalized ATP levels rapa + drug (B) [1]: 1.17
ATP Fold Change (B):(A) [1]: 2.8 (Anticonvulsant)
Inducing cell death in TSC2-null LAM cells as single agent [1]: surprisingly effective at inducing cell death

CN(C)CCOc1ccc(-c2nc(-c3ccncc3)c(-c3ccc4c(c3)CC/C4=N\O)[nH]2)cc1 [SB-590885]
Synergize with rapamycin to cause cell death / decrease ATP levels (confirmed hits) [1, 11]: confirmed as hits
Synergy with rapamycin to bring about apoptosis in TSC2-null LAM cells [1]: worked synergistically with rapamycin

C/N=c1\nc(-c2ccccc2)n(-c2ccccc2)s1 [SCH-202676 hydrobromide, (N-(2,3-diphenyl-1,2,4-thiadiazol-5-(2H)-ylidene)methanamine) hydrobromide]
Synergize with rapamycin to cause cell death / decrease ATP levels (confirmed hits) [1, 11]: confirmed as hits
Synergy with rapamycin to bring about apoptosis in TSC2-null LAM cells [1]: worked synergistically with rapamycin

OCc1cc(C(O)CNCCCCCCOCCCCc2ccccc2)ccc1O (centres unmarked) [Salmeterol]
Normalized ATP levels drug alone (A) [1]: 0.184
Normalized ATP levels rapa + drug (B) [1]: 0.456
ATP Fold Change (B):(A) [1]: 2.5 (β blocker)
Inducing cell death in TSC2-null LAM cells as single agent [1]: surprisingly effective at inducing cell death

C[CH2][Hg][S]c1ccccc1C(=O)[O-].[Na+] [Thimerosal, Ethyl(2-mercaptobenzoato-(2-)-O,S) mercurate(1-) sodium]
Synergy with rapamycin to bring about apoptosis in TSC2-null LAM cells [1]: worked synergistically with rapamycin

COc1ccc2c(c1)CC[C@@H]1[C@@H]2CC[C@]2(C)[C@@H](NCCCCCCN3C(=O)CCC3=O)CC[C@@H]12 [U-73343, 1-[6-[((17β)-3-Methoxyestra-1,3,5[10]-trien-17-yl)amino]hexyl]-2,5-pyrrolidinedione]
Synergy with rapamycin to bring about apoptosis in TSC2-null LAM cells [1]: worked synergistically with rapamycin

COc1ccc2c(c[n+](C)c3c4cc5c(cc4ccc23)OCO5)c1OC [chelerythrine chloride]
Effect alone versus in combination with rapamycin (single agent potential) [1, 11]: protected by rapamycin
Inducing cell death in TSC2-null LAM cells as single agent [1]: surprisingly effective at inducing cell death
Effect on 621-101 cells in combination with rapamycin ([6]; 24 h, 1 uM, rapamycin 20 nM pretreatment two hours): effect on cells is reduced
621-101 cell proliferation ([6]; 24 h post drug exposure, 1 uM, DMSO pretreatment): inhibits 621-101 cell proliferation
621-101 cell proliferation ([6]; 96 h post drug exposure): inhibits 621-101 cell proliferation
Effect on Tsc2-null MEFs [7]: dramatic effect
Selectivity for Tsc2-null versus wild-type MEFs [7]: selective to Tsc2-null cells
Effect on wild-type MEFs [8]: minimal effect
IC50 [9]: 660 nM

CO[C@@H](C(=O)N1Cc2[nH]nc(NC(=O)c3ccc(N4CCN(C)CC4)cc3)c2C1)c1ccccc1 [danusertib (PHA-739358)]
Synergize with rapamycin to cause cell death / decrease ATP levels (confirmed hits) [1, 11]: confirmed as hits
Synergy with rapamycin to bring about apoptosis in TSC2-null LAM cells [1]: worked synergistically with rapamycin

C[C@H](CCC(=O)O)C[C@H](C)C[C@H](C)C(=O)/C=C(\O)[C@H](C)C[C@H](C)C/C=C/[C@@H](C)[C@@H](O)[C@@H](C)[C@@H](O)C[C@@H]1CC[C@@](C)([C@H]2CC[C@@](C)([C@@H](C)O)O2)O1 [ionomycin]
Synergy with rapamycin to bring about apoptosis in TSC2-null LAM cells [1]: worked synergistically with rapamycin

COC(=O)C1=C(C)NC(C)=C(C(=O)OCCN(C)Cc2ccccc2)C1c1cccc([N+](=O)[O-])c1 (centres unmarked) [nicardipine]
Synergy with rapamycin to bring about apoptosis in TSC2-null LAM cells [1]: worked synergistically with rapamycin

CNCCC=C1c2ccccc2CCc2ccccc21 [nortriptyline, 3-(10,11-dihydro-5H-dibenzo[a,d]cyclohepten-5-ylidene)-N-methyl-1-propanamine]
Inducing cell death in TSC2-null LAM cells as single agent [1]: surprisingly effective at inducing cell death

Fc1ccc([C@@H]2CCNC[C@H]2COc2ccc3c(c2)OCO3)cc1 [paroxetine, (3S,4R)-3-[(2H-1,3-benzodioxol-5-yloxy)methyl]-4-(4-fluorophenyl)piperidine]
Inducing cell death in TSC2-null LAM cells as single agent [1]: surprisingly effective at inducing cell death
Apoptosis of ELT3-V3 (TSC2-deficient) cells [10]: susceptible to Paxil induced apoptosis
Selectivity for TSC2-deficient ELT3-V3 versus ELT3-T3 cells [10]: selective to Tsc2-null cells

CO[C@H]1C[C@@H]2CC[C@@H](C)[C@@](O)(O2)C(=O)C(=O)N2CCCC[C@H]2C(=O)O[C@H]([C@H](C)C[C@@H]2CC[C@@H](O)[C@H](OC)C2)CC(=O)[C@H](C)/C=C(\C)[C@@H](O)[C@@H](OC)C(=O)[C@H](C)C[C@H](C)/C=C/C=C/C=C/1C [rapamycin]
Cell death in 621-101 cells ([6]; FIG. 1): does not induce cell death

CN1CCN(CCCN2c3ccccc3Sc3ccc(C(F)(F)F)cc32)CC1 [trifluoperazine, 10-[3-(4-methylpiperazin-l-yl)propyl]-2-(trifluoromethyl)-10H-phenothiazine]
Inducing cell death in TSC2-null LAM cells as single agent [1]: surprisingly effective at inducing cell death

(7R)-7-(Acetyloxy)-4-hydroxy-N,N,N-trimethyl-3,5,9-trioxa-4-phosphapentacosan-1-aminium-4-oxide [PAF C16]
Synergy with rapamycin to bring about apoptosis in TSC2-null LAM cells [1]: worked synergistically with rapamycin
